Each structure is given as a SMILES string. Like-named read-outs stand apart in the source and are kept apart here. Bounds are passed on as bounds.

For one data set, the system named is RS4;11. The data set can be described thus: CellTiter-Glo viability, RS4. Format: cell-based. As to conditions: for IC50: Homo sapiens, RS4-11, 24 h, read-out: IC50, CellTiter-Glo. A general note: Cellular ATP, detected with luciferase, serves as a proxy for viable cell number.
In another data set the test system is LOUCY. The data set can be described thus: CellTiter-Glo viability, LOUCY. It is filed as cell-based. As to conditions: read-out: IC50, CellTiter-Glo.
The test system of the next data set is CCRF-CEM. The data set can be described thus: CellTiter-Glo viability, CCRF-CEM. Format: cell-based.
Another data set has as its system PF-382. The experiment in a line: CellTiter-Glo viability, PF-382. It is filed as cell-based. Conditions: read-out: IC50, CellTiter-Glo.
In the next data set the test system is MOLT4. The data set can be described thus: CellTiter-Glo viability, MOLT4. Format: cell-based. Conditions: read-out: IC50, CellTiter-Glo.
The subject of data set [1] is treatment-naïve primary CLL cells. The experiment in a line: TMRM / Annexin V apoptosis assay, treatment-naïve primary CLL cells. It is filed as cell-based. Conditions: Homo sapiens, CLL cell, 18 h, read-out: IC50, apoptosis (TMRM and Annexin V).
Data set [2] has as its system venetoclax-relapsed primary CLL cells. The data set can be described thus: TMRM / Annexin V apoptosis assay, venetoclax-relapsed primary CLL cells. Format: cell-based. Conditions: Homo sapiens, CLL cell, read-out: IC50, apoptosis (TMRM and Annexin V).
For data set [3], the system named is primary CLL cells cultured with or without NK Tert stroma. The experiment in a line: Primary CLL cells with or without NK Tert stroma, Annexin V / TMRM. Format: cell-based. Conditions: Homo sapiens, CLL cell.
Data set [4] concerns primary CLL cells co-cultured on HS-5 stromal cells. The data set can be described thus: Primary CLL cells co-cultured on HS-5 stroma, Annexin V / TMRM. Format: cell-based, human. Conditions: HS-5 co-culture 24 hr.
The test system of a further data set is platelets. The data set can be described thus: 14-day repeat-dose non-GLP platelet toxicity study in dogs. It is filed as in vivo, dog. Conditions: oral once daily.
Data set [5] is described as follows: Single-dose dog PK and platelet toxicity study. Format: in vivo. Conditions: 25 mg/kg single oral dose.
The nature of the next data set: in vitro. Conditions: human.
Data set [6] deals with RS4;11 cells with WT BCL2. The experiment in a line: TMRM / Annexin V staining, RS4. Format: cell-based. As to conditions: Homo sapiens, RS4-11, 72 h, read-out: IC50, TMRM / Annexin V.
The subject of data set [7] is OSU-CLL BCL2 knockout (KO) cells. The experiment in a line: CellTiter-Glo viability, OSU-CLL BCL2 KO. It is filed as cell-based. As to conditions: 72 hr, above 200 nM.
In another data set the test system is RS4;11 WT BCL2 xenograft. The experiment in a line: RS4. Format: in vivo, mouse. Conditions: 6.25 mg/kg orally once daily for 28 days.
The next data set deals with OSU-CLL xenograft. The data set can be described thus: OSU-CLL xenograft. Format: in vivo, mouse. Conditions: 50 mg/kg daily oral gavage.
The mark [8] stands for this setting: read-out: IC50, CLL cells co-cultured with NK Tert cells.
Where [9] appears, read: read-out: IC50, CLL cells without stromal protection.

For the compound `Cc1c(-c2ccc(N3CCc4cccc(C(=O)Nc5nc6ccccc6s5)c4C3)nc2C(=O)O)cnn1CC12CC3CC(CC(C3)C1)C2` [A-1331852], the “IC50, CellTiter-Glo” value with RS4;11 (RS4;11, 24 hr) is recorded as “not effective”. Besides, the IC50 with LOUCY (LOUCY, 24 hr) turned out to be 130 nM; with CCRF-CEM (read-out: IC50, CellTiter-Glo, 24 hr) it was 13.9 nM; with PF-382 (PF-382, 24 hr), 46.6 nM; with MOLT4 (MOLT4, 24 hr), 5.5 nM.

On to `CC1(C)CCC(c2ccc(Cl)cc2)=C(CN2CCN(c3ccc(C(=O)NS(=O)(=O)c4ccc(N[C@H](CCN5CCOCC5)CSc5ccccc5)c(S(=O)(=O)C(F)(F)F)c4)cc3)CC2)C1` [navitoclax], for which the IC50 came to 10.1 nM in data set [1]; 4.13 nM in data set [2]; 16 nM in data set [3] (setting [8]); 5.9 nM in data set [3] (setting [9]); 42.1 nM in the data set with RS4;11; 47.4 nM in the data set on LOUCY (24 h). Further, the IC50 was determined as 492 nM in the data set with CCRF-CEM (Homo sapiens, 24 h, read-out: IC50, CellTiter-Glo); 379 nM in the data set with PF-382 (Homo sapiens, PF-382, 24 h); 291 nM with MOLT4 (Homo sapiens, MOLT-4, 24 h); 170 nM in “in vitro”. Also, in data set [4], the “effect of HS-5 stroma on sensitivity of CLL cells” value is recorded as “does not alter the sensitivity”. In the data set with platelets, the “dose at which platelet toxicity was induced” value is greater than 3 mg/kg. Moreover, the “maximum reduction in platelets” value in data set [5] amounted to 97%.

For the compound `CC1(C)CCC(CN2CCN(c3ccc(C(=O)NS(=O)(=O)c4ccc(NCC5CCOCC5)c([N+](=O)[O-])c4)c(Oc4cnc5[nH]ccc5c4)c3)CC2)=C(c2ccc(Cl)cc2)C1` [venetoclax], the IC50 in [1] was 3.8 nM; in data set [2] it was 16 nM; in data set [3] (setting [8]) it was 1.2 nM; in data set [3] (setting [9]), 0.908 nM; in data set [6] it was 3.58 nM; in the data set with RS4;11, 4.7 nM. In addition, the results for the IC50 in the data set on LOUCY (24 h) and in “in vitro” were 125 nM and 25000 nM, respectively. Also, the “effect of HS-5 stroma on sensitivity of CLL cells” value in [4] is “does not alter the sensitivity”. The plateau of killing in [7] was determined as 50%. Besides, in [5], the “maximum reduction in platelets” value was 6%. In addition, the “plasma persistence / clearance at 30 hr post treatment” value in data set [5] is listed as “persisted in plasma”. The same compound registered a median survival in the data set on RS4;11 WT BCL2 xenograft of 59 days. Moreover, the “tumor volume upon stopping treatment” value in the data set with RS4;11 WT BCL2 xenograft is “relapsed and exhibited increased tumor growth”. Further, the “platelet counts throughout treatment” value in the data set with OSU-CLL xenograft is given as “maintained similar platelet counts”. Also, the “survival compared to vehicle” value in the data set on OSU-CLL xenograft was “significantly improved the survival”.

For the origin of these results see PMC11694131 (Haematologica, 2024).
